{
  "source": "patent US7713960B2",
  "about": "“Inhibition of the Raf/Mek/P-Erk pathway for treating cancer” (University of South Florida, priority 2005, dated 2010)",
  "key": {"SF-539 cells": {"test_system": "SF-539 cells", "experiment": "Total cellular cAMP measurement, SF-539", "type": "cell-based, human", "experimental": "(§1) Total cellular cAMP measurement—The measurement of total cellular cAMP was done using a cAMP Biotrak ™ Enzymeimmunoassay (EIA) system (Amersham Biosciences, Piscataway, N.J.) according to the manufacturer's protocol. Briefly, 2000 cells were plated into each well of a 96 well plate. The next day cells were treated with increasing concentrations of ARA-211 or with vehicle for one hour. Alternatively, MDA-MB-231 cells were pre-treated with antagonists to the α1 (Prazosin, Sigma), α2 (Yohimbine, Sigma), β1 (Metoprolol, Sigma), and β2 (ICI 118.551, Sigma) adrenergic receptors at 100 nM for 15 minutes followed by treatment with 10 μM ARA-211 for 45 minutes. Cells were then lysed directly in the wells using the supplied lysis buffer. The lysate was transferred to a 96-well cAMP ELISA plate, and results were quantified using a Wallac Victor 2 plate reader."}, "ACHN cells [1]": {"test_system": "ACHN cells", "experiment": "Total cellular cAMP measurement, ACHN", "type": "cell-based, human", "experimental": "as §1"}, "A-549 cells": {"test_system": "A-549 cells", "experiment": "Total cellular cAMP measurement, A-549", "type": "cell-based, human", "experimental": "as §1"}, "HCT-116 cells [2]": {"test_system": "HCT-116 cells", "experiment": "Total cellular cAMP measurement, HCT-116", "type": "cell-based, human", "experimental": "as §1"}, "MDA-MB-231 cells": {"test_system": "MDA-MB-231 cells", "experiment": "Anchorage-independent growth (soft agar assay), MDA-MB-231", "type": "cell-based, human", "experimental": "(§2) Soft Agar Assay—Anchorage independent growth assays were performed as previously described (Lerner et al., 1997). Briefly, agar was diluted to 0.3% in propagation media containing 20,000 cells and either vehicle or ARA-211 and 1 ml of cell/agar mixture plated on top of 2 ml of a 0.6% layer of agar in medium alone. Cells were grown for three to four weeks at 37° C., 10% Co2 and were fed weekly with 100 μl per well of media/treatment. Quantification of colonies was done using a GS-700 scanning densitometer."}, "HCT-116 cells [3]": {"test_system": "HCT-116 cells", "experiment": "Anchorage-independent growth (soft agar assay), HCT-116", "type": "cell-based, human", "experimental": "as §2"}, "ACHN cells [4]": {"test_system": "ACHN cells", "experiment": "Apoptosis assay (Cell Death Detection ELISA), ACHN", "type": "cell-based, human", "conditions": "48 hours", "experimental": "Apoptosis Assay—Apoptosis was analyzed using the Cell Death Detection ELISA (Roche, Indianapolis, Ind.) measuring cytoplasmic histone-associated mono- and oligonucleosome DNA fragments. Procedures were carried out according to the manufacturers protocol. Briefly, 1×10^5 cells were plated in 60 mm dishes and treated with various doses of ARA-211 or vehicle for 48 hours. Cells were lysed with the provided lysis buffer and lysate was incubated on the ELISA plate for 1 hour to capture the histone associated DNA indicative of apoptotic cells. Anti-DNA peroxidase conjugated antibody was added to detect the cleaved DNA and the microplate was washed and developed with ABTS substrate which was quantitated by microplate reader at 405 nm."}, "Mek-1": {"test_system": "Mek-1", "experiment": "In vivo kinase assay, intact MDA-MB-231 cells treated, Mek-1", "type": "cell-based, human", "conditions": "10 μM", "experimental": "In Vitro Kinase Assays—MDA-MB-231 cells (2×10^6) were lysed for 30 minutes at 4° C. in RIPA-150 buffer (10 mM Tris pH 7.5, 150 mM NaCl, 10% glycerol, 5 mM EDTA, 1% Triton X-100, 0.1% SDS, 100 μM sodium orthovanadate, 1 μM aprotinin, 10 μM leupeptin, 10 μM antipain). Cell debris was pelleted at 13000 rpm for 15 minutes at 4° C. and the lysate was rocked overnight with 10 μg of either c-Raf or MEK antibodies (Santa Cruz Biotechnologies, Santa Cruz, Calif.). 25 μl of protein A/G PLUS agarose (Santa Cruz Biotechnology) was then added and rocked for 4 hours at 4° C. Samples were spun at 2000 rpm for 5 minutes to collect the agarose beads, which were then washed four times with lysis buffer. On the final wash each pellet was divided into 5. […]"}, "protein kinase A (PKA)": {"test_system": "protein kinase A (PKA)", "experiment": "PKA kinase assay, MDA-MB-231 cells", "type": "cell-based, human", "experimental": "PKA Kinase Assay—PKA kinase assays were performed with the SignaTECT® cAMP-Dependent Protein Kinase (PKA) Assay System (Promega, Madison Wis.) according to the manufacturer's protocol. Briefly, cells were plated (5×10^6) into 100 mm dishes and treated the next day with ARA-211, H-89 (EMD Biosciences), or vehicle. Cells were lysed using a Dounce homogenizer and lysates were incubated in the supplied kinase reaction buffer, with ^32P-ATP and biotin labeled PKA peptide substrate for 5 min at 37° C. Once the reactions were quenched they were spotted onto streptavidin membranes and ^32P-ATP transfer was measured via scintillation counter."}, "HCT-116 cells [5]": {"test_system": "HCT-116 cells", "experiment": "Nude mouse xenograft model, HCT-116 (s.c.)", "type": "in vivo, nude mice", "conditions": "HCT-116 xenograft; i.p. 75 mpk/day", "description": "Anti-tumor activity in nude mouse xenograft model—Female athymic nude (nu/nu) mice, 5-6 weeks old, were purchased from Charles River (Wilmington, Mass.) and allowed to acclimate in the animal facility for one week. After harvesting, A-549, SNB-19, ACHN, and HCT-116 cells were, resuspended in sterile PBS, and injected s.c. into the right and left flanks (10×10^6 cells per flank) of the mice as previously described (Sun et al., 2005). For MDA-MB-231, cells were harvested and resuspended in PBS (10×10^6 cells per 50 μl) and an equal volume of Matrigel (BD Biosciences, San Jose, Calif.). 100 μl of MDA-MB-231 cells in PBS/Matrigel were injected s.c. into the mammary fat pads between the 2nd and 3rd nipples on each side of the mice. Once the tumors reached approximately 200-300 mm^3 the mice were randomized and treated i.p. with 0.1 ml vehicle (PBS) or ARA-211. Each treatment group consisted of five mice (2 tumors per mouse, a total of 10 tumors). The tumor volumes were determined by measuring the length (l) and width (w) and calculating the volume (V=w^2l/2). Statistical significance between the control and treated animals was determined using a student's t test."}},
  "note": "Structures can show the parent of a compound that is named as a salt.",
  "data": [
    {"compound": "CC(C)(C)NCC(O)c1ccc(O)c(CO)n1", "note": "(stereo not shown) [ARA-211, 2-hydroxymethyl-3-hydroxy-6-(1-hydroxy-2-tert-butylaminoethyl) pyridine, dihydrochloride]", "values": [
      {"measurement": "cAMP (Fold Induction)", "setting": "SF-539 cells", "value": "13.1 ± 3.0", "unit": "Fold"},
      {"measurement": "cAMP (Fold Induction)", "setting": "ACHN cells [1]", "value": "16.5 ± 3.2", "unit": "Fold"},
      {"measurement": "cAMP (Fold Induction)", "setting": "A-549 cells", "value": "1.3 ± 0.3", "unit": "Fold"},
      {"measurement": "cAMP (Fold Induction)", "setting": "HCT-116 cells [2]", "value": "1.1 ± 0.1", "unit": "Fold"},
      {"measurement": "Anchorage Independent Growth (% Inhibition)", "setting": "MDA-MB-231 cells", "value": "82.7 ± 7.9", "unit": "%"},
      {"measurement": "Anchorage Independent Growth (% Inhibition)", "setting": "HCT-116 cells [3]", "value": "7.3 ± 3.1", "unit": "%"},
      {"measurement": "Apoptosis (% Induction)", "setting": "ACHN cells [4]", "value": "11.4 ± 1.9", "unit": "%"},
      {"measurement": "Mek-1 kinase activity, intact cells first treated", "setting": "Mek-1", "value": "blocked"},
      {"measurement": "activation of protein kinase A (PKA)", "setting": "protein kinase A (PKA)", "value": "activation of protein kinase A (PKA)"},
      {"measurement": "growth of tumors", "setting": "HCT-116 cells [5]", "value": "is not affected"}
    ]}
  ]
}
